Assays:
Assay type in all cases: cell-based
Beta-secretase 1 [1] = biological target: T1, Beta-secretase 1 (Homo sapiens, UniProt P56817); experiment: Inhibition of BACE1 in human KBV1 cells expressing APP 751 Swedish mutant assessed as inhibition of amyloid beta (1 to 40) production after overnight incubation by ELISA in presence of tariquidar
Beta-secretase 1 [2] = biological target: T1, Beta-secretase 1; experiment: Inhibition of BACE1 in human KBV1 cells expressing APP 751 Swedish mutant assessed as inhibition of amyloid beta (1 to 40) production after overnight incubation by ELISA in absence of tariquidar
Beta-secretase 1 [3] = biological target: T1, Beta-secretase 1; experiment: Inhibition of BACE1 in human HEK293 cells expressing APP 695 Swedish mutant assessed as inhibition of amyloid beta (1 to 40) production after overnight incubation by ELISA
Beta-secretase 1 [4] = biological target: T1, Beta-secretase 1; experiment: Displacement of [3H]BMS-599240 from BACE1 expressed in HEK293 cells
Beta-secretase 1 [5] = biological target: T1, Beta-secretase 1; experiment: Ratio of IC50 for BACE1 in human KBV1 cells expressing APP 751 Swedish mutant in absence of tariquidar to IC50 for BACE1 in human KBV1 cells expressing APP 751 Swedish mutant in presence of tariquidar
Beta-secretase 1 [6] = biological target: T1, Beta-secretase 1; experiment: Ratio of IC50 for BACE1 in HEK293 cells expressing APP 695 Swedish mutant to Ki for BACE1

T1 sequence (P56817 whole entry): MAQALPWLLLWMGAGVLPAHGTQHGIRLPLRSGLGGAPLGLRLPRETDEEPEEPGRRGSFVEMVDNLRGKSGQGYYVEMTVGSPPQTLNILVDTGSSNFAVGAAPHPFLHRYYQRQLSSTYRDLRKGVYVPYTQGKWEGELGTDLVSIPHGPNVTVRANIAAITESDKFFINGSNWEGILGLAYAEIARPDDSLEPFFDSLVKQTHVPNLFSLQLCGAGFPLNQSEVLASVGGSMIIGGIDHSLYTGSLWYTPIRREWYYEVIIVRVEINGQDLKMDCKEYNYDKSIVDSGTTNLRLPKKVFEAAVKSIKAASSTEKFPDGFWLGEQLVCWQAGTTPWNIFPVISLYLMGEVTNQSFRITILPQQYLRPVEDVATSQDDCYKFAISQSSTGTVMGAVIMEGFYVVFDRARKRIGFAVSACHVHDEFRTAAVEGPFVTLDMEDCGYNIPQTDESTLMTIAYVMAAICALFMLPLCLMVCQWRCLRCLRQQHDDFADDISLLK

SMILES	IC50 (Beta-secretase 1 [1])	IC50 (Beta-secretase 1 [2])	IC50 (Beta-secretase 1 [3])	Ki (Beta-secretase 1 [4])	Ratio IC50 (Beta-secretase 1 [5])	Ratio (Beta-secretase 1 [6])
COc1ccc(-c2nsc(C)c2C(=O)NC(N)=NCc2cc(Cl)c(NC(=O)CN3CCC3)c(Cl)c2)cc1	8 nM	180 nM	8 nM	4 nM		
COc1ccc(-c2noc(C)c2C(=O)/N=C(\N)NCc2cc(Cl)cc(Cl)c2)cc1	3900 nM	3300 nM	1600 nM	670 nM	0.8	
COc1ccc(-c2nsc(C)c2C(=O)/N=C(\N)NCc2cc(Cl)c(NC(C)=O)c(Cl)c2)cc1	310 nM	> 10000 nM	310 nM	5 nM	> 32	62
COc1ccc(-c2nsc(C)c2C(=O)/N=C(/N)NCc2cc(Cl)c(N)c(Cl)c2)cc1	1030 nM	1700 nM	630 nM	40 nM		

— ChEMBL document CHEMBL2177026, “Acyl guanidine inhibitors of β-secretase (BACE-1): optimization of a micromolar hit to a nanomolar lead via iterative solid- and solution-phase library synthesis” (J Med Chem, 2012)
